# How the values were obtained:
# Details in all cases: 72 h
# KU-812 = experiment: cell viability (% survival relative to DMSO control, bortezomib = 0%); higher = less cytotoxic
# Method in brief: (§1)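 Fifteen myeloid leukaemia cell lines (10 AML, 5 CML) were seeded at a density titrated to the linear growth range. They went into 384-well plates with compounds pre-printed at 1, 10, 100, 1000 or 10000 nM in duplicate. After 72 h at 37 °C with 5% CO2, viability was read by CellTiter-Glo luminescence. Values are percent survival, with vehicle set to 100% and a 10 µM positive control to 0%, averaged over the duplicates.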
# NOMO-1 = experiment: as above
# Method in brief: as §1
# MOLM-13 = experiment: as above
# Method in brief: as §1
# THP-1 = experiment: as above
# Method in brief: as §1
# [1] = system: myeloid leukemia patient primary cells Pat.10; experiment: cell viability (% survival relative to DMSO control); higher = less cytotoxic
# Method in brief: (§2)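 Thawed, Ficoll-purified mononuclear cells from AML or CML patients in RPMI 1640 with 10% FBS were seeded at 10,000 cells/well on 384-well plates pre-printed with 70 compounds at five tenfold concentrations, 1–10,000 nM, in duplicate, for 72 h. Viability was read by CellTiter-Glo and normalised to DMSO and 10 μM proteasome-inhibitor wells. Where given, area under the curve came from four-parameter log-logistic fits (drc, PharmacoGx R packages).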
# [2] = system: myeloid leukemia patient primary cells Pat.14; experiment: as above
# Method in brief: as §2
# [3] = system: myeloid leukemia patient primary cells Pat.9; experiment: as above
# Method in brief: as §2
# [4] = system: myeloid leukemia patient primary cells Pat.3; experiment: as above
# Method in brief: as §2
# [5] = system: myeloid leukemia patient primary cells Pat.11; experiment: as above
# Method in brief: as §2
# [6] = system: myeloid leukemia patient primary cells Pat.7; experiment: as above
# Method in brief: as §2
# [7] = system: myeloid leukemia patient primary cells Pat.2; experiment: as above
# Method in brief: as §2
# [8] = system: myeloid leukemia patient primary cells Pat.4; experiment: as above
# Method in brief: as §2
# [9] = system: myeloid leukemia patient primary cells Pat.6; experiment: as above
# Method in brief: as §2
# [10] = system: myeloid leukemia patient primary cells Pat.13; experiment: as above
# Method in brief: as §2
# [11] = system: myeloid leukemia patient primary cells Pat.15; experiment: as above
# Method in brief: as §2
# [12] = system: myeloid leukemia patient primary cells Pat.12; experiment: as above
# Method in brief: as §2
# [13] = system: myeloid leukemia patient primary cells Pat.1; experiment: as above
# Method in brief: as §2
# [14] = system: myeloid leukemia patient primary cells Pat.8; experiment: as above
# Method in brief: as §2
# [15] = system: myeloid leukemia patient primary cells Pat.5; experiment: as above
# Method in brief: as §2
compound,measurement,setting,value
NS(=O)(=O)c1ccc(S(=O)(=O)Nc2cccc3c(Cl)c[nH]c23)cc1 [Indisulam],cell viability,KU-812; 1 nM,102%
same,cell viability,KU-812; 10 nM,99.1%
same,cell viability,KU-812; 100 nM,108%
same,cell viability,KU-812; 1000 nM,29.9%
same,cell viability,KU-812; 10000 nM,13.7%
same,cell viability,NOMO-1; 1 nM,102%
same,cell viability,NOMO-1; 10 nM,98.4%
same,cell viability,NOMO-1; 100 nM,105%
same,cell viability,NOMO-1; 1000 nM,63.2%
same,cell viability,NOMO-1; 10000 nM,24.8%
same,cell viability,MOLM-13; 1 nM,122%
same,cell viability,MOLM-13; 10 nM,102%
same,cell viability,MOLM-13; 100 nM,97.8%
same,cell viability,MOLM-13; 1000 nM,32.6%
same,cell viability,MOLM-13; 10000 nM,7.24%
same,cell viability,THP-1; 1 nM,103%
same,cell viability,THP-1; 10 nM,94.5%
same,cell viability,THP-1; 100 nM,112%
same,cell viability,THP-1; 1000 nM,94.3%
same,cell viability,THP-1; 10000 nM,71.1%
same,cell viability,[1]; 1 nM,55.5%
same,cell viability,[1]; 10 nM,64.9%
same,cell viability,[1]; 100 nM,97%
same,cell viability,[1]; 1000 nM,81.4%
same,cell viability,[1]; 10000 nM,> 100%
same,cell viability,[2]; 1 nM,75.2%
same,cell viability,[2]; 10 nM,84.3%
same,cell viability,[2]; 100 nM,85.7%
same,cell viability,[2]; 1000 nM,62.6%
same,cell viability,[2]; 10000 nM,66.6%
same,cell viability,[3]; 1 nM,47.8%
same,cell viability,[3]; 10 nM,84%
same,cell viability,[3]; 100 nM,81.1%
same,cell viability,[3]; 1000 nM,40.9%
same,cell viability,[3]; 10000 nM,24.6%
same,cell viability,[4]; 1 nM,84.5%
same,cell viability,[4]; 10 nM,> 100%
same,cell viability,[4]; 100 nM,> 100%
same,cell viability,[4]; 1000 nM,72.9%
same,cell viability,[4]; 10000 nM,34.2%
same,cell viability,[5]; 1 nM,93.9%
same,cell viability,[5]; 10 nM,> 100%
same,cell viability,[5]; 100 nM,> 100%
same,cell viability,[5]; 1000 nM,86.3%
same,cell viability,[5]; 10000 nM,72.1%
same,cell viability,[6]; 1 nM,93.3%
same,cell viability,[6]; 10 nM,77.1%
same,cell viability,[6]; 100 nM,91.3%
same,cell viability,[6]; 1000 nM,43.1%
same,cell viability,[6]; 10000 nM,21.2%
same,cell viability,[7]; 1 nM,> 100%
same,cell viability,[7]; 10 nM,88.2%
same,cell viability,[7]; 100 nM,95.8%
same,cell viability,[7]; 1000 nM,96.9%
same,cell viability,[7]; 10000 nM,67.1%
same,cell viability,[8]; 1 nM,91.4%
same,cell viability,[8]; 10 nM,87.2%
same,cell viability,[8]; 100 nM,86%
same,cell viability,[8]; 1000 nM,28%
same,cell viability,[8]; 10000 nM,9.12%
same,cell viability,[9]; 1 nM,99.9%
same,cell viability,[9]; 10 nM,98.2%
same,cell viability,[9]; 100 nM,> 100%
same,cell viability,[9]; 1000 nM,81.5%
same,cell viability,[9]; 10000 nM,63.2%
same,cell viability,[10]; 1 nM,92.6%
same,cell viability,[10]; 10 nM,91.3%
same,cell viability,[10]; 100 nM,98%
same,cell viability,[10]; 1000 nM,57.4%
same,cell viability,[10]; 10000 nM,44.8%
same,cell viability,[11]; 1 nM,90.2%
same,cell viability,[11]; 10 nM,90.8%
same,cell viability,[11]; 100 nM,75.9%
same,cell viability,[11]; 1000 nM,79.2%
same,cell viability,[11]; 10000 nM,44.1%
same,cell viability,[12]; 1 nM,89.5%
same,cell viability,[12]; 10 nM,95.5%
same,cell viability,[12]; 100 nM,89.6%
same,cell viability,[12]; 1000 nM,96.9%
same,cell viability,[12]; 10000 nM,85.2%
same,cell viability,[13]; 1 nM,94.5%
same,cell viability,[13]; 10 nM,> 100%
same,cell viability,[13]; 100 nM,94.1%
same,cell viability,[13]; 1000 nM,65.2%
same,cell viability,[13]; 10000 nM,48.8%
same,cell viability,[14]; 1 nM,89.9%
same,cell viability,[14]; 10 nM,91.6%
same,cell viability,[14]; 100 nM,97.5%
same,cell viability,[14]; 1000 nM,79.2%
same,cell viability,[14]; 10000 nM,55.5%
same,cell viability,[15]; 1 nM,47.7%
same,cell viability,[15]; 10 nM,70.8%
same,cell viability,[15]; 100 nM,62.1%
same,cell viability,[15]; 1000 nM,17.9%
same,cell viability,[15]; 10000 nM,12.4%
Cc1nnc(-c2ccc(N3CCC(Oc4ccccc4C(F)(F)F)CC3)nn2)s1 [MF-438],cell viability,KU-812; 1 nM,93.9%
same,cell viability,KU-812; 10 nM,103%
same,cell viability,KU-812; 100 nM,83.9%
same,cell viability,KU-812; 1000 nM,113%
same,cell viability,KU-812; 10000 nM,97.5%
same,cell viability,NOMO-1; 1 nM,97.9%
same,cell viability,NOMO-1; 10 nM,99.2%
same,cell viability,NOMO-1; 100 nM,92.8%
same,cell viability,NOMO-1; 1000 nM,108%
same,cell viability,NOMO-1; 10000 nM,103%
same,cell viability,MOLM-13; 1 nM,63.7%
same,cell viability,MOLM-13; 10 nM,86.7%
same,cell viability,MOLM-13; 100 nM,33.9%
same,cell viability,MOLM-13; 1000 nM,41.3%
same,cell viability,MOLM-13; 10000 nM,36.6%
same,cell viability,THP-1; 1 nM,97.9%
same,cell viability,THP-1; 10 nM,110%
same,cell viability,THP-1; 100 nM,96.5%
same,cell viability,THP-1; 1000 nM,102%
same,cell viability,THP-1; 10000 nM,98.1%
same,cell viability,[1]; 1 nM,80.2%
same,cell viability,[1]; 10 nM,89.2%
same,cell viability,[1]; 100 nM,96.8%
same,cell viability,[1]; 1000 nM,87.5%
same,cell viability,[1]; 10000 nM,> 100%
same,cell viability,[2]; 1 nM,85%
same,cell viability,[2]; 10 nM,> 100%
same,cell viability,[2]; 100 nM,87.8%
same,cell viability,[2]; 1000 nM,83.5%
same,cell viability,[2]; 10000 nM,92.2%
same,cell viability,[3]; 1 nM,56.2%
same,cell viability,[3]; 10 nM,91.2%
same,cell viability,[3]; 100 nM,87.2%
same,cell viability,[3]; 1000 nM,69.3%
same,cell viability,[3]; 10000 nM,75.2%
same,cell viability,[4]; 1 nM,76.3%
same,cell viability,[4]; 10 nM,77.5%
same,cell viability,[4]; 100 nM,72.9%
same,cell viability,[4]; 1000 nM,61.3%
same,cell viability,[4]; 10000 nM,74.1%
same,cell viability,[5]; 1 nM,94%
same,cell viability,[5]; 10 nM,96.6%
same,cell viability,[5]; 100 nM,> 100%
same,cell viability,[5]; 1000 nM,> 100%
same,cell viability,[5]; 10000 nM,90.6%
same,cell viability,[6]; 1 nM,> 100%
same,cell viability,[6]; 10 nM,93.3%
same,cell viability,[6]; 100 nM,99.7%
same,cell viability,[6]; 1000 nM,74.4%
same,cell viability,[6]; 10000 nM,41.2%
same,cell viability,[7]; 1 nM,> 100%
same,cell viability,[7]; 10 nM,99.8%
same,cell viability,[7]; 100 nM,95.4%
same,cell viability,[7]; 1000 nM,87.6%
same,cell viability,[7]; 10000 nM,89.7%
same,cell viability,[8]; 1 nM,83.7%
same,cell viability,[8]; 10 nM,98.5%
same,cell viability,[8]; 100 nM,87.9%
same,cell viability,[8]; 1000 nM,85.8%
same,cell viability,[8]; 10000 nM,68.8%
same,cell viability,[9]; 1 nM,95.4%
same,cell viability,[9]; 10 nM,98.9%
same,cell viability,[9]; 100 nM,99.5%
same,cell viability,[9]; 1000 nM,83%
same,cell viability,[9]; 10000 nM,85.3%
same,cell viability,[10]; 1 nM,86.8%
same,cell viability,[10]; 10 nM,86.4%
same,cell viability,[10]; 100 nM,86.9%
same,cell viability,[10]; 1000 nM,80.8%
same,cell viability,[10]; 10000 nM,97.4%
same,cell viability,[11]; 1 nM,97.4%
same,cell viability,[11]; 10 nM,89.5%
same,cell viability,[11]; 100 nM,98.7%
same,cell viability,[11]; 1000 nM,86.9%
same,cell viability,[11]; 10000 nM,69.8%
same,cell viability,[12]; 1 nM,99.4%
same,cell viability,[12]; 10 nM,97.1%
same,cell viability,[12]; 100 nM,> 100%
same,cell viability,[12]; 1000 nM,87.5%
same,cell viability,[12]; 10000 nM,90.5%
same,cell viability,[13]; 1 nM,78.8%
same,cell viability,[13]; 10 nM,85.8%
same,cell viability,[13]; 100 nM,97.1%
same,cell viability,[13]; 1000 nM,90.5%
same,cell viability,[13]; 10000 nM,82.8%
same,cell viability,[14]; 1 nM,86.9%
same,cell viability,[14]; 10 nM,94.5%
same,cell viability,[14]; 100 nM,77.7%
same,cell viability,[14]; 1000 nM,86.9%
same,cell viability,[14]; 10000 nM,94.9%
same,cell viability,[15]; 1 nM,32.8%
same,cell viability,[15]; 10 nM,93.8%
same,cell viability,[15]; 100 nM,67.7%
same,cell viability,[15]; 1000 nM,46.4%
same,cell viability,[15]; 10000 nM,27.4%

# From the supplement of paper PMC8671470
